The values that follow come from ChEMBL document CHEMBL3044856, “Molecular docking of glycogen synthase kinase3- inhibitor oleanolic acid and its wound-healing activity in rats” (Med Chem Res, 2013).

Active and inactive are the calls of the source. No cut-off for these calls is given here.

In data set [1] the test system is Mus musculus. The data set can be described thus: Wound-healing activity in Swiss albino Mus musculus (mouse) assessed as increase in collagenation in granulation tissue at 3 mg/ml, ip measured on day 10 by hematoxylin and eosin staining-based histological analysis relative to untreated control. The class given is functional, organism-based.
For data set [2], the system named is Mus musculus. Kind of data set: Acute toxicity in Swiss albino Mus musculus (mouse) assessed as mortality up to 120 mg/kg, ip. The class given is organism-based. Further details: dose 120 mg/kg, route intraperitoneal. Conditions: in vivo.
The subject of data set [3] is Mus musculus. The data set can be described thus: Acute toxicity in Swiss albino Mus musculus (mouse) assessed as abnormal behavior up to 120 mg/kg, ip. The class given is organism-based. Further details: dose 120 mg/kg, route intraperitoneal. The settings on record: in vivo.
The test system of data set [4] is Mus musculus. The data set can be described thus: Wound-healing activity in Swiss albino Mus musculus (mouse) dead space wound model assessed as increase in hydroxyproline content measured per 100 g of tissue at 3 mg/ml, ip measured on day 10 (reference value: 1411.15 +/- 6.26 ug). Format: functional.
For data set [5], the system named is Mus musculus. The data set can be described thus: Wound-healing activity in Swiss albino Mus musculus (mouse) dead space wound model assessed as increase in tissue breaking strength at 3 mg/ml, ip measured on day 10 (reference value: 366.32 +/- 14.40 g). Format: functional.
The subject of data set [6] is Mus musculus. Kind of data set: Wound-healing activity in Swiss albino Mus musculus (mouse) dead space wound model assessed as increase in wet weight of granuloma tissue at 3 mg/ml, ip measured on day 10 (reference value: 79.56 +/- 1.05 mg). Format: functional.
In data set [7] the test system is Mus musculus. Kind of data set: Wound-healing activity in Swiss albino Mus musculus (mouse) dead space wound model assessed as increase in dry weight of granuloma tissue at 3 mg/ml, ip measured on day 10 (reference value: 11.52 +/- 0.9 mg). Format: functional.
The test system of data set [8] is Mus musculus. Kind of data set: Wound-healing activity in Swiss albino Mus musculus (mouse) excision wound model assessed as time required for complete epithelialization of excision wound at 3 mg/ml, ip (reference value: 22.75 +/- 0.13 days). The class given is functional.
Data set [9] has as its system Mus musculus. Kind of data set: Wound-healing activity in Swiss albino Mus musculus (mouse) assessed as decrease in macrophage accumulation in granulation tissue at 3 mg/ml, ip measured on day 10 by hematoxylin and eosin staining-based histological analysis relative to untreated control. The class given is functional, organism-based.
The test system of data set [10] is Mus musculus. The data set can be described thus: Wound-healing activity in Swiss albino Mus musculus (mouse) excision wound model assessed as closure of excision wound area at 3 mg/ml, ip measured on day 16 (reference value: 81.36 +/- 0.83%). The class given is functional.
The subject of data set [11] is Mus musculus. The data set can be described thus: Wound-healing activity in Swiss albino Mus musculus (mouse) excision wound model assessed as closure of excision wound area at 3 mg/ml, ip measured on day 12 (reference value: 66.04 +/- 0.94%). The class given is functional.
The test system of data set [12] is Mus musculus. The data set can be described thus: Wound-healing activity in Swiss albino Mus musculus (mouse) excision wound model assessed as closure of excision wound area at 3 mg/ml, ip measured on day 8 (reference value: 54.64 +/- 1.17%). Format: functional.
The test system of data set [13] is Mus musculus. Kind of data set: Wound-healing activity in Swiss albino Mus musculus (mouse) excision wound model assessed as closure of excision wound area at 3 mg/ml, ip measured on day 4 (reference value: 25.32 +/- 3.31%). The class given is functional.
In data set [14] the test system is Mus musculus. Kind of data set: Wound-healing activity in Swiss albino Mus musculus (mouse) incision wound model assessed as increase in tensil strength of incision wound at 12 mg/kg/day, ip measured on day 10 (reference value: 356.13 +/- 14.55 g). Conditions: route intraperitoneal. The class given is functional.
Data set [15] has as its system Mus musculus. Kind of data set: Wound-healing activity in ip dosed Swiss albino Mus musculus (mouse) assessed as decrease in macrophage accumulation in granulation tissue measured on day 10 by hematoxylin and eosin staining-based histological analysis relative to untreated control. Format: functional, organism-based.
In data set [16] the test system is Mus musculus. Kind of data set: Wound-healing activity in ip dosed Swiss albino Mus musculus (mouse) excision wound model assessed as closure of excision wound area measured on day 16 (reference value: 81.36 +/- 0.83%). The class given is functional.
Data set [17] relates to Mus musculus. The data set can be described thus: Wound-healing activity in ip dosed Swiss albino Mus musculus (mouse) excision wound model assessed as closure of excision wound area measured on day 12 (reference value: 66.04 +/- 0.94%). Format: functional.
Data set [18] concerns Mus musculus. Kind of data set: Wound-healing activity in ip dosed Swiss albino Mus musculus (mouse) excision wound model assessed as closure of excision wound area measured on day 8 (reference value: 54.64 +/- 1.17%). The class given is functional.
The subject of data set [19] is Mus musculus. Kind of data set: Wound-healing activity in ip dosed Swiss albino Mus musculus (mouse) excision wound model assessed as closure of excision wound area measured on day 4 (reference value: 25.32 +/- 3.31%). The class given is functional.
Data set [20] relates to Mus musculus. The data set can be described thus: Wound-healing activity in ip dosed Swiss albino Mus musculus (mouse) excision wound model assessed as time required for complete epithelialization of excision wound (reference value: 22.75 +/- 0.13 days). Format: functional.
Data set [21] has as its system Mus musculus. The data set can be described thus: Wound-healing activity in ip dosed Swiss albino Mus musculus (mouse) assessed as increase in collagenation in granulation tissue measured on day 10 by hematoxylin and eosin staining-based histological analysis relative to untreated control. The class given is functional, organism-based.
For data set [22], the system named is Mus musculus. Kind of data set: Wound-healing activity in ip dosed Swiss albino Mus musculus (mouse) dead space wound model assessed as increase in hydroxyproline content measured per 100 g of tissue measured on day 10 (reference value: 1411.15 +/- 6.26 ug). Format: functional.
Data set [23] concerns Mus musculus. Kind of data set: Wound-healing activity in ip dosed Swiss albino Mus musculus (mouse) dead space wound model assessed as increase in tissue breaking strength measured on day 10 (reference value: 366.32 +/- 14.40 g). The class given is functional.
Data set [24] deals with Mus musculus. The data set can be described thus: Wound-healing activity in ip dosed Swiss albino Mus musculus (mouse) dead space wound model assessed as increase in dry weight of granuloma tissue measured on day 10 (reference value: 11.52 +/- 0.9 mg). The class given is functional.
Data set [25] concerns Mus musculus. The data set can be described thus: Wound-healing activity in ip dosed Swiss albino Mus musculus (mouse) dead space wound model assessed as increase in wet weight of granuloma tissue measured on day 10 (reference value: 79.56 +/- 1.05 mg). Format: functional.
For data set [26], the system named is Mus musculus. Kind of data set: Wound-healing activity in ip dosed Swiss albino Mus musculus (mouse) incision wound model assessed as increase in tensil strength of incision wound measured on day 10 (reference value: 356.13 +/- 14.55 g). The class given is functional.

Regarding `CC1(C)CC[C@]2(C(=O)O)CC[C@]3(C)C(=CC[C@@H]4[C@@]5(C)CC[C@H](O)C(C)(C)[C@@H]5CC[C@]43C)[C@@H]2C1` [OLEANOLIC_ACID], the result in data set [1] and in data set [9] was Active. Also, the Activity result is “Non-toxic” in data set [2]; “Non-toxic” in data set [3]; 2124.91 µg in data set [4]; 599.08 g in data set [5]; 127.12 mg in [6]; 26.25 mg in data set [7]. Moreover, the Activity in data set [10] is given as 96.82%; in data set [11], 86.06%; in [12], 79.11%; in [13], 36.13%; in data set [14], 580.83 g. Further, the Time in data set [8] was found to be 18.48 days.
Regarding `Nc1ccc(S(=O)(=O)Nc2nccs2)cc1` [SULFATHIAZOLE], the result in [15] and in data set [21] was Active. The Activity came to 96.94% in [16]; 84.46% in data set [17]; 74.54% in data set [18]; 39.94% in data set [19]; 2427.33 µg in data set [22]; 617.39 g in data set [23]. Further, the Activity in data set [24] was 28.42 mg; in data set [25] it was 131.4 mg; in data set [26], 582.04 g. For the same compound, the Time in [20] is 18.36 days.
